Experimental data published in PMC11845477, “Exploring the principles behind antibiotics with limited resistance” (Nature Communications, 2025).

Legend:
Assay in all cases: microbe, parasite or virus in culture
[1] = system: T1, Escherichia coli ATCC 25922; parameters: CLSI broth microdilution MIC; OD600 < 0.05 counted as complete growth inhibition; details: Escherichia coli, ATCC25922, 18 h; read-out: MIC of ancestor
T1 construct: ATCC 25922
Protocol: (§1) A final concentration of 5 × 10^5 bacterial cells per mL were inoculated into each well containing 60 µL MHB medium. Bacterial cultures were incubated at 37 °C with continuous shaking (Infors shaker, 900 rpm with 3 mm throw) for 18 hours (2 replicates from each). Cell growth was monitored by measuring the optical density (OD600 values, using Biotek Synergy microplate reader). MIC was defined as the antibiotic concentration of complete growth inhibition (i.e., OD600 < 0.05). Relative MIC was calculated as follows:1 relativeMIC=MICevolved/MICancestor This study focused on multiple bacterial strains, as follows. For the FoR and ALE experiments, 2 strains per species were chosen: E. coli ATCC 25922, K. pneumoniae ATCC 10031, A. baumannii ATCC 17978, and P. aeruginosa ATCC BAA-3107 as sensitive (SEN) strains, and E. coli NCTC13846, K. pneumoniae ATCC 700603, A. baumannii ATCC BAA-1605 and P. aeruginosa LESB58 as multi-drug resistant (MDR) strains. Functional metagenomic screens were performed with E. coli ATCC 25922 and K. pneumoniae ATCC 10031 strains. To determine the dose-kill properties of the different antibiotics, an E. coli strain (ATCC 25922) expressing a yellow fluorescent protein (pZS2R, YFP, CHL^R) and a red fluorescent protein (pZS2R, mCherry, CHL^R) was used.

[2] = system: T2, Klebsiella pneumoniae ATCC 10031; parameters: CLSI broth microdilution MIC; OD600 < 0.05 counted as complete growth inhibition; details: Klebsiella pneumoniae, ATCC10031, 18 h; read-out: MIC of ancestor
T2 construct: ATCC 10031
Protocol: as §1

[3] = system: T3, Acinetobacter baumannii ATCC BAA 1605; parameters: CLSI broth microdilution MIC; OD600 < 0.05 counted as complete growth inhibition; details: Acinetobacter baumannii, BAA1605, 18 h; read-out: MIC of ancestor
T3 construct: ATCC BAA-1605
Protocol: as §1

[4] = system: T4, Acinetobacter baumannii ATCC 17978; parameters: CLSI broth microdilution MIC; OD600 < 0.05 counted as complete growth inhibition; details: Acinetobacter baumannii, ATCC17978, 18 h; read-out: MIC of ancestor
T4 construct: ATCC 17978
Protocol: as §1

[5] = system: T5, Klebsiella pneumoniae ATCC 700603; parameters: CLSI broth microdilution MIC; OD600 < 0.05 counted as complete growth inhibition; details: Klebsiella pneumoniae, ATCC700603, 18 h; read-out: MIC of ancestor
T5 construct: ATCC 700603
Protocol: as §1

[6] = system: T6, Escherichia coli NCTC 13846; parameters: CLSI broth microdilution MIC; OD600 < 0.05 counted as complete growth inhibition; details: Escherichia coli, NCTC13846, 18 h; read-out: MIC of ancestor
T6 construct: NCTC 13846
Protocol: as §1

[7] = system: T7, K. pneumoniae ATCC 700603 (MDR); parameters: Serial broth microdilution MIC (CLSI), OD600 below 0.05, 384-well plates, MHB medium; details: Klebsiella pneumoniae, ATCC700603, 18 h; ancestor strain before evolution
T7 construct: ATCC 700603
Protocol: as §1

A. baumannii ATCC 17978 = system: T8, A. baumannii ATCC 17978; parameters: Serial broth microdilution MIC (CLSI), OD600 below 0.05, 384-well plates, MHB medium; details: Acinetobacter baumannii, ATCC17978, 18 h; ancestor strain before evolution
T8 construct: ATCC 17978
Protocol: as §1

K. pneumoniae ATCC 10031 = system: T9, K. pneumoniae ATCC 10031; parameters: Serial broth microdilution MIC (CLSI), OD600 below 0.05, 384-well plates, MHB medium; details: Klebsiella pneumoniae, ATCC10031, 18 h; ancestor strain before evolution
T9 construct: ATCC 10031
Protocol: as §1

E. coli ATCC 25922 = system: E. coli ATCC 25922; parameters: Serial broth microdilution MIC (CLSI), OD600 below 0.05, 384-well plates, MHB medium; details: Escherichia coli, ATCC25922, 18 h; ancestor strain before evolution
Protocol: as §1

E. coli NCTC13846 (MDR) = system: T10, E. coli NCTC13846 (MDR); parameters: Serial broth microdilution MIC (CLSI), OD600 below 0.05, 384-well plates, MHB medium; details: Escherichia coli, NCTC13846, 18 h; ancestor strain before evolution
T10 construct: NCTC 13846
Protocol: as §1

Work on `CC(C)c1ccc(Cn2ccc3c4c(N)nc(NC5CC5)nc4ccc32)cc1` [SCH, SCH79797] yielded an MIC [1] of 4 µg/mL, an MIC [2] of 4 µg/mL and an MIC [3] of 4 µg/mL. For the same compound, the MIC [4] was 4 µg/mL.

Compound `C[C@@H](O)[C@H]1C(=O)N2C(C(=O)O)=C(S[C@H]3CC[S@@+]([O-])C3)S[C@H]12` [SUO, sulopenem] has an MIC [1] of 0.0312 µg/mL, an MIC [2] of 0.0312 µg/mL and an MIC [5] of 0.5 µg/mL. For the same compound, the MIC [6] was 0.0312 µg/mL and the MIC [4] was 1 µg/mL.

In the case of `C[C@@H](O)[C@H]1C(=O)N2C(C(=O)O)=C(S[C@H]3CC[S@@+]([O-])C3)S[C@H]12` [sulopenem], the MIC [7] is reported as 0.5 µg/mL, the MIC (A. baumannii ATCC 17978) is reported as 1 µg/mL and the MIC (K. pneumoniae ATCC 10031) is reported as 0.0312 µg/mL. For the same compound, the MIC (E. coli ATCC 25922) was 0.0312 µg/mL and the MIC (E. coli NCTC13846 (MDR)) was 0.0312 µg/mL.
